Data on one molecule can be found in patent publication US20090246212A1, “DEVELOPMENT OF METHOD FOR SCREENING FOR DRUG CAPABLE OF IMPROVING PRODUCTION OF REGULATORY T CELLS AND METHOD FOR PRODUCING REGULATORY T CELLS USING IMMUNOSUPPRESSIVE MACROLIDE ANTIBIOTIC” (KYOTO UNIVERSITY, priority 2005, published 2009).

Common to all, as to format: cell-based, human
Assay [1] concerns CD45RA^+CD25^−CD4^+ T cells. As to the kind of experiment: Expansion culture of CD45RA^+CD25^−CD4^+ T cells with allogenic PBMCs and IL-2, everolimus added. The conditions noted are these: everolimus 100 nM or 1000 nM from the start of cultivation. As for the experimental part:
(§1) CD45RA^+CD25^+CD4^+ T cells or CD45RA^+CD25^−CD4^+ T cells in human peripheral blood (5×10̂4 cells/well) were stimulated with 1×10̂5 cells/well radiated (40 Gy) allogenic PBMCs in a 96-well round-bottomed culture plate containing 200 μl per well of a proliferation medium (AlyS505N (produced by Cell Science & Technology Institute) supplemented with 2% human AB serum) in the presence of human IL-2 (1000 U/ml, produced by Cell Science & Technology Institute).
(§2) Everolimus (100 nM or 1000 nM, produced by Novartis Pharma) was added to the medium from the start of cultivation. The everolimus was purified as follows: Certican 0.25 mg tablet (produced by Novartis Pharma) was milled and dissolved in acetone. Then, the solution was filtered, the filtrate was evaporated while rotating, and the precipitate was vacuum-dried. The extract obtained was dissolved in DMF and separated by HPLC (column C18 4 μm, 150×2.1 mm). After separation, the everolimus was freeze-dried and purified.
(§3) Every 3 to 4 days, half of the medium was replaced with a fresh proliferation medium containing IL-2. If necessary, the cells were separated and repeatedly re-stimulated with radiated (40 Gy) allogenic PBMC every 10 to 14 days. Fifty days after the start of cultivation, the cells were collected and used for functional assay.

The subject of assay [2] is CD45RA^+CD25^+CD4^+ T cell line. Briefly: Suppression assay ([^3H] thymidine uptake) of the everolimus-cultured CD45RA^+CD25^+CD4^+ T cell line. The conditions noted are these: cultivation in the presence of everolimus, 50 days; compared with controls. As for the experimental part:
as §1
(§4) Everolimus (100 nM or 1000 nM, produced by Novartis Pharma) was added to the medium from the start of cultivation. The everolimus was purified as follows: Certican 0.25 mg tablet (produced by Novartis Pharma) was milled and dissolved in acetone. Then, the solution was filtered, the filtrate was evaporated while rotating, and the precipitate was vacuum-dried. […]
(§5) The indicated number of cells of the expanded CD45RA^+CD25^+CD4^+ T cell line or expanded CD45RA^+CD25^−CD4^+ T cell line, alone or along with autologous responder CD4^+ T cells (5×10̂4 cells/well), were stimulated with radiated (40 Gy) PBMCs (1×10̂5 cells/well) obtained from the same individual as the allogenic PBMCs used for the cultivation, in a proliferation medium in a round-bottomed 96-well microplate. […] Subsequently, the cells were recovered, and [^3H] thymidine uptake was measured using 1450 Microbeta TriLux (Wallac).

Assay [3] deals with CD45RA^+CD25^+CD4^+ T cells. As to the kind of experiment: Expansion culture of CD45RA^+CD25^+CD4^+ T cells with allogenic PBMCs and IL-2, everolimus added. The settings on record: everolimus 1000 nM from the start of cultivation. As for the experimental part: as §1, §2, §3
The test system of assay [4] is CD45RA^+CD25^−CD4^+ T cell line. Briefly: Suppression assay ([^3H] thymidine uptake) of the everolimus-cultured CD45RA^+CD25^−CD4^+ T cell line. The settings on record: cultivation in the presence of everolimus, 50 days; compared with the control. As for the experimental part: as §1, §4, §5

As to `CO[C@H]1C[C@@H]2CC[C@@H](C)[C@@](O)(O2)C(=O)C(=O)N2CCCC[C@H]2C(=O)O[C@H]([C@H](C)C[C@@H]2CC[C@@H](OCCO)[C@H](OC)C2)CC(=O)[C@H](C)/C=C(\C)[C@@H](O)[C@@H](OC)C(=O)[C@H](C)C[C@H](C)/C=C/C=C/C=C/1C` [everolimus, 42-O-(2-hydroxy)ethyl-rapamycin], in assay [1], the “proliferation of CD45RA^+CD25^−CD4^+ T cells” value is “enhanced”. Also, the “T cell line's effect on proliferation of CD4^+ T cells in response to alloantigen-presenting cells” value in assay [2] and in assay [4] was “more strongly suppressed” in each case. The “proliferation of CD45RA^+CD25^+CD4^+ T cells” value in assay [3] was “suppressed”.
